Results reported in patent US11559512B2, “Composition for prevention, alleviation, and/or treatment of heat illness” (priority 2017, dated 2023).
“Also recorded” adds a separate entry of the source.

Columns and labels:
[1] = system: human vascular endothelial cells (HUVECs)
Protocol: Then, 2 mL of trypsin/EDTA was added to the cells, and the cells were detached by incubation at 37° C. in a 5% CO2 environment. After the cell detachment, 5 mL/dish of a culture medium was added, and the cells were transferred to a 15-mL tube and centrifuged at 1200 rpm for 5 minutes in a centrifuge. The supernatant was removed, and then, the number of cells was adjusted to a cell density of 5×10^4 cells/mL using a cell counting kit by the addition of 5 mL of a culture medium. Then, two 6-well plates were used, and the solution with the adjusted HUVEC density was inoculated at 4 mL/well to 3 wells of each plate. Each phytochemical component was added at 4 μL (final concentration: 10 μM)/well to one well of each plate. Also, a phytochemical dissolving solution DMSO was added at 4 μL/well to the remaining wells to prepare a control. […]
Serial dilutions of auraptene were added to the cells, and the cell death of the HUVECs caused by heat stress was observed by crystal violet staining.

[2] = system: fat droplets in human vascular endothelial cells (HUVECs); assay: Intracellular fat droplets, BODIPY staining, confocal microscopy; type: cell-based
Protocol: Then, nine 35-mm dishes were provided, and 2 mL/dish of the solution with the adjusted HUVEC density was inoculated. Auraptene (10 mM) and tangeretin (10 mM) were each added at 2 μL (final concentration: 10 μM)/dish to three dishes. Also, DMSO was added at 2 μL/dish to the remaining 3 dishes to prepare a control.
The supernatant of the HUVECs cultured in each 35-mm dish was removed, and 2 mL/dish of 4% paraformaldehyde in a phosphate buffer solution was added. The cells were left standing at room temperature for 1 hour for cell fixation. The solution was removed, and then, the cells were rinsed twice. 1 mL/dish of BODIPY diluted 2000-fold with a FACS buffer was added, and the cells were left standing at room temperature for 30 minutes in the dark for reaction.
The solution was removed, and then, the cells were rinsed twice. Two drops of Diamond Antifade Mountant with DAPI were added to the cells, and a round glass cover was put on the cells, followed by fluorescence photographing under a confocal laser scanning microscope.

[3] = system: PPARα; assay: PPARα expression in HUVECs, antibody staining, confocal microscopy; type: cell-based, human
Protocol: Then, six 35-mm dishes were provided, and 2 mL/dish of the solution with the adjusted HUVEC density was inoculated. Auraptene (10 mM) and tangeretin (10 mM) were each added at 2 μL (final concentration: 10 μM)/dish to two dishes. Also, DMSO was added at 2 μL/dish to the remaining 2 dishes to prepare a control.
The supernatant of the HUVECs cultured in each 35-mm dish was removed, and 2 mL/dish of 4% paraformaldehyde in a phosphate buffer solution was added. The cells were left standing at room temperature for 1 hour.
The solution was removed, and then, the cells were rinsed twice. 2 mL/dish of 0.5% Triton-X00 (Wako Pure Chemical Industries, Ltd.) in PBS was added, and the cells were left standing at room temperature for 5 minutes. The solution was removed, and then, the cells were rinsed twice. 1 mL/dish of an anti-ABCD3 antibody, an anti-PPARα antibody or an anti-PPARγ antibody, each of which was diluted 150-fold with a FACS buffer, was added, and the cells were left standing at room temperature for 2 hours for reaction.
The solution was removed, and then, the cells were rinsed twice. 1 mL/dish of DyLight 649-labeled anti-Rabbit IgG antibody diluted 500-fold with a FACS buffer was added, and the cells were left standing at room temperature for 1 hour in the dark for reaction. The solution was removed, and then, the cells were rinsed twice. Two drops of Diamond Antifade Mountant with DAPI were added to the cells, and a round glass cover was put on the cells, followed by fluorescence photographing under a confocal laser scanning microscope.

[4] = system: CCL-2; assay: CCL-2 concentration in supernatant of lymphocytes under heat stress load (ELISA); type: cell-based, human
Protocol: 10 mL of human peripheral blood was collected and anti-coagulated with heparin, and 10 mL of PBS(−) was added thereto and stirred. 15 mL of Lymphocyte Separation Medium 1077 (PromoCell GmbH) was layered thereon so as not to mix blood thereinto, followed by blood separation at 1600 rpm for 30 minutes in a centrifuge. The mononuclear cell layer thus separated was collected into a dropper, added to 20 mL of a culture medium, and centrifuged at 1500 rpm for 5 minutes in a centrifuge. The supernatant was removed, and then, 20 mL of a culture solution was added to the cells and stirred. The cells were centrifuged again at 1500 rpm for 5 minutes in a centrifuge. The supernatant was removed, and then, 10 mL of a culture medium was added to the cells and stirred. The whole amount was added to a 10-cm dish and incubated at 37° C. for 1 hour in a 5% CO2 environment. […] The solution with the adjusted lymphocyte density was inoculated at 4 mL/well to 2 wells of each 6-well plate. […] Then, the supernatant was recovered into a 1.5-mL Eppendorf tube and centrifuged at 8000 rpm for 5 minutes in a centrifuge. […]
The solution was removed, and each well was washed four times. […] TMB Microwell Peroxidase Substrate was added at 100 μL/well, followed by the absorbance measurement of the reaction solution in a plate reader at 450 nm.

[5] = Table 2 summary, HUVECs 40° C., 37° C. as comparative control

## CC(C)=CCC/C(C)=C/COc1ccc2ccc(=O)oc2c1 [auraptene, 7-geranyloxycoumarin]
[1]; HUVECs cultured at 40° C. for 3 days, vs DMSO
  cell survival by crystal violet staining: evidently increased cell survival
[1]; HUVECs, 40° C. for 3 days, crystal violet staining
  concentration at which the cell death suppressive effect was confirmed (value in brackets): 600 nM
[1]; HUVECs, 40° C. for 3 days, serial dilutions, crystal violet staining
  concentration at which the cell death suppressive effect was confirmed: 0.6 µM
[1]; [5]
  Cytotoxicity (cell death): Suppressed
[2]; HUVECs, 40° C. for 2 days, 10 μM, BODIPY, vs DMSO
  amount of fat droplets under heat stress load: decrease in the amount of fat droplets; also recorded: decreased the amount of fat droplets
[2]; HUVECs, usual culture (37° C.), 10 μM, vs DMSO
  amount of fat droplets at usual culture: no change in the amount of fat droplets
[2]; [5]
  Amount of fat droplets: Decreased
[3]; HUVECs, 40° C. and 1 day, 10 μM, vs DMSO
  expression of PPARα: increase in the expression of PPARα
[3]; [5]
  PPARα: Increased
[4]; peripheral blood lymphocytes sample A, 40° C., auraptene 10 μM, non-addition 61 ± 0.2
  CCL-2 sample A: 32 ± 1.7 pg/mL
[4]; peripheral blood lymphocytes under heat stress load, vs DMSO, p<0.05
  production of CCL-2: significantly suppressed
